1 molecule from US8633168B2, “Inhibitors of S-adenosyl-L-methionine decarboxylase” (Genzyme Corporation, priority 2007, dated 2014) can be followed below.

The subject of data set [1] is Trypanosoma brucei rhodesiense strain STIB 900. Nature of the data set: Drug sensitivity assay against T. b. rhodesiense (Alamar blue). Format: cell-based. An excerpt:
Trypanosoma brucei rhodesiense strain STIB 900, a clone of a population isolated in 1982 from a patient in Tanzania which is known to be susceptible to all currently used drugs was used in these assays. The bloodstream form trypomastigotes of this strain were maintained in supplemented Modified Eagle's Medium according to standard protocols (Hirumi H, Hirumi K, 1989. “Continuous cultivation of Trypanosoma brucei blood stream forms in a medium containing a low concentration of serum protein without feeder cell layers”. J Parasitol 75: 985-9).
Drug sensitivity assays were performed in sterile 96-well microtiter plates, with or without serial drug dilutions. The compounds were tested at 7 concentrations (drug concentration ranging from 90 μg/ml to 0.123 μg/ml in 3-fold dilutions). The highest concentration for the test compounds was 90 μg/ml. Each drug is tested in duplicate. After 72 hours of incubation the plates were inspected microscopically to assure growth of the controls to determine the minimum inhibitory concentration (MIC), i.e., the lowest drug concentration at which no trypanosomes with normal morphology and motility can be seen compared to control wells. Cell viability is measured by Alamar blue staining and IC50 values were calculated.
(§1) The bloodstream form trypomastigotes of the three strains are maintained according to standard protocols established at STI.
(§2) Drug sensitivity assays are performed in sterile 96-well microtiter plates, with or without serial drug dilutions. The highest concentration for the test compounds is 90 μg/ml. Each drug is tested in duplicate. After 72 hours of incubation the plates are inspected microscopically to assure growth of the controls to determine the minimum inhibitory concentration (MIC), i.e., the lowest drug concentration at which no trypanosomes with normal morphology and motility can be seen compared to control wells. Cell viability is measured by Alamar blue staining and IC50 values are calculated.
The preliminary screen used T. b. rhodesiense. The compounds were tested at 7 concentrations (drug concentration ranging from 90 μg/ml to 0.123 μg/ml in 3-fold dilutions).
(In general: Alamar Blue is a resazurin reagent that responds to reducing activity.)

A short description of data set [2]: Microsomal stability, rat. Format: in vitro ADME. As for the experimental part: (§3) Liver microsomes and hepatocytes represent an in vitro surrogate for assessing the phase I/II metabolic stability of new discovery leads. Following the incubation of the compounds with microsomes or hepatocytes of different species (e.g., human, rat, dog, monkey, mouse), the samples were transferred to 96 well plates for quantitation using LC/MS/MS. The % of compound remaining was measured and used to calculate clearance and % hepatic blood flow.

The nature of data set [3]: Hepatocyte stability, rat. Format: in vitro ADME. As for the experimental part:
as §3

Data set [4] deals with CYP3A4 (Homo sapiens, UniProt P08684). Nature of the data set: Cytochrome P450 inhibition, CYP3A4. The note with it: human, probe fluorometric substrates (not named). From the text:
(§4) This cytochrome P450 high throughput IC50 inhibition assay is utilized for screening potential inhibitors of the 5 major human CYP isozyme catalytic activities (CYP3A4, 2D6, 2C9, 2C19, and 1A2).

Data set [5] addresses CYP2D6 (Homo sapiens, UniProt P10635). Nature of the data set: Cytochrome P450 inhibition, CYP2D6. The note with it: human, probe fluorometric substrates (not named).
Text: as §4

Data set [6] has as its target CYP2C9 (Homo sapiens, UniProt P11712). Nature of the data set: Cytochrome P450 inhibition, CYP2C9. The note with it: human, probe fluorometric substrates (not named).
Text: as §4

Data set [7] deals with CYP2C19 (Homo sapiens, UniProt P33261). The data set can be described thus: Cytochrome P450 inhibition, CYP2C19. As to conditions: human, probe fluorometric substrates (not named).
CYP2C19, sequence (P33261 whole entry): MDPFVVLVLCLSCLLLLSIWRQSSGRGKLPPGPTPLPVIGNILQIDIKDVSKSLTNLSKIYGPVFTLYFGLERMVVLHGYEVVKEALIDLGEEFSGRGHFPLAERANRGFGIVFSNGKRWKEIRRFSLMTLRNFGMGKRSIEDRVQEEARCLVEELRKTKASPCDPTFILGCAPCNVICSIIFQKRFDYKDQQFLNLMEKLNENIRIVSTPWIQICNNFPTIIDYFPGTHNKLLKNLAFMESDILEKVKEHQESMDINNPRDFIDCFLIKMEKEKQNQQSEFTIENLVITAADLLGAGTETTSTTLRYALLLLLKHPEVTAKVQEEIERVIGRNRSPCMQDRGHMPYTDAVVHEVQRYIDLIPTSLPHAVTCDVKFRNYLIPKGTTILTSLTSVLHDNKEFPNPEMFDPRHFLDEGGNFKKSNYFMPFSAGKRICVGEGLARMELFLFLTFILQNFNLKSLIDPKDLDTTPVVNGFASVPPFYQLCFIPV
Text: as §4

Data set [8] can be described thus: Plasma protein binding (RED), human. Format: in vitro ADME. The protocol: (§5) Rapid Equilibrium Dialysis device (RED) is a 96-well formatted dialysis with disposable inserts and Teflon base design providing short incubation time. The membrane in RED physically separates of bound and free drug. After 4 hr incubation at 37° C., drug concentrations at both plasma (e.g., human, rat, dog, monkey, mouse) and pH 7.4 PBS buffer sides was quantitated by LC/MS/MS and % bound drug in plasma was calculated.

Data set [9] is described as follows: Plasma protein binding (RED), mouse. Format: in vitro ADME. The protocol:
as §5

Data set [10] can be described thus: Mouse PK study. As to conditions: Table 3. Format: in vivo. As for the experimental part:
The rodent PK study designs provide reliable estimation of PK parameters using fewer animals. Often two routes, PO and IV, were included in the rodent PK study protocols with three subjects in each dosing group (often PO at 10 mg/kg and IV at 3 mg/kg).

A short description of data set [11]: Mouse brain exposure. Format: in vivo. As to conditions: Table 3. The protocol: This was determined by harvesting brains at selected time points, weighing and extracting total tissue homogenate for LC/MS/MS analysis. The amount of test compound associated with the brain was calculated by subtracting that amount attributable to blood vessels (7%, times the blood exposure levels).

Data set [12] concerns T. b. brucei. Nature of the data set: Cell-based screening against T. b. brucei. Also noted: species or system Trypanosoma brucei brucei. The note with it: Trypanosoma brucei, Screening Data; two values per compound. As for the experimental part:
as §1, §2
Active compounds (IC50<0.2 μg/ml) are tested against the Trypanosoma brucei gambiense STIB 930 and the multi-drug resistant T. b. brucei STIB 950 following the same protocol as described above.
This example provides data relating to the biological screening results. MDL 73811 and selected new compounds 1-7 were tested against a variety of cell-based organisms and enzymes and the IC50 measured. In vitro ADME profiles were also obtained. Solubility, permeability, microsomal/hepatocyte stability, cychrome P450 inhibition and plasma protein binding characteristics were probed for each of the compounds. The methodology for these tests are described in previous paragraphs. The results are summarized in the following 2 charts.

The test system of data set [13] is T. cruzi. Nature of the data set: Cell-based screening against T. cruzi. As to conditions: Trypanosoma cruzi; Screening Data.
The subject of data set [14] is L. donovani (axenic). Nature of the data set: Screening against L. donovani (axenic). Format: cell-based. As to conditions: Leishmania donovani; Screening Data.
Data set [15] relates to Schistosomes adult. Nature of the data set: Screening against Schistosomes, adult. Format: cell-based. As to conditions: Screening Data.
Data set [16] is described as follows: LogD.

The CLint scaled is the rate of metabolic loss divided by the concentration. Lower therefore signals slow turnover. What is called fraction unbound is the share of the substance not bound to proteins or other matrix. A word on the AUC: it is the area under the concentration-time curve, a measure of exposure. Low readings indicate less exposure, high ones more exposure. For orientation: logD means lipophilicity at a set pH, counting ionised and neutral species. Read a low logD as a more hydrophilic compound.

Where two headings read alike, the source gives them in different places. Some results are limits rather than exact numbers.

CYP2C9, sequence (P11712 whole entry): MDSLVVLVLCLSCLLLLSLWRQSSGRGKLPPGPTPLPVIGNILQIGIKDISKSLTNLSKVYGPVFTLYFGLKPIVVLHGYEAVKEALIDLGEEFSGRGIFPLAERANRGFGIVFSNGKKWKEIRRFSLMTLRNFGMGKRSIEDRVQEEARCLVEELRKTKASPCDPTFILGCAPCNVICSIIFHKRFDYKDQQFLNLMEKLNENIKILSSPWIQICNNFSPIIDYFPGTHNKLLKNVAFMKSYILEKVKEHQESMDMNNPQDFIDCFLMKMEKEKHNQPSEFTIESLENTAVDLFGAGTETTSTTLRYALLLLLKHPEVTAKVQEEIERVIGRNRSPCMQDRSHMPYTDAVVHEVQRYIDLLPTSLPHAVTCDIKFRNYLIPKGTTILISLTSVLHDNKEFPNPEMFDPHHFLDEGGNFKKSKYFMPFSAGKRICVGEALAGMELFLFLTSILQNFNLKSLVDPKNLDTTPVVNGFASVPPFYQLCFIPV
CYP3A4, sequence (P08684 whole entry): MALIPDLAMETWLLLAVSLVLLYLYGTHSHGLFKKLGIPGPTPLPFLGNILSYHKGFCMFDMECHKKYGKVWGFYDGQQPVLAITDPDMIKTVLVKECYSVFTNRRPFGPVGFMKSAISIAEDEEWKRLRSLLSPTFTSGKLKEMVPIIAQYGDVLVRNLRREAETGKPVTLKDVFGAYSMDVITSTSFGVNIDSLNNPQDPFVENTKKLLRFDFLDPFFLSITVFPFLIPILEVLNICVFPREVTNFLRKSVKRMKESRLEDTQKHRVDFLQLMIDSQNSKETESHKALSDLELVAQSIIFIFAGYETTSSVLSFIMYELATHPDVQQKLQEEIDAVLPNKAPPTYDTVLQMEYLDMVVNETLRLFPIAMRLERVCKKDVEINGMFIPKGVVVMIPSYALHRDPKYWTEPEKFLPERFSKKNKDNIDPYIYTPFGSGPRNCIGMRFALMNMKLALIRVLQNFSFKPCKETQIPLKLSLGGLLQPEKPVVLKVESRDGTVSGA
CYP2D6, sequence (P10635 whole entry): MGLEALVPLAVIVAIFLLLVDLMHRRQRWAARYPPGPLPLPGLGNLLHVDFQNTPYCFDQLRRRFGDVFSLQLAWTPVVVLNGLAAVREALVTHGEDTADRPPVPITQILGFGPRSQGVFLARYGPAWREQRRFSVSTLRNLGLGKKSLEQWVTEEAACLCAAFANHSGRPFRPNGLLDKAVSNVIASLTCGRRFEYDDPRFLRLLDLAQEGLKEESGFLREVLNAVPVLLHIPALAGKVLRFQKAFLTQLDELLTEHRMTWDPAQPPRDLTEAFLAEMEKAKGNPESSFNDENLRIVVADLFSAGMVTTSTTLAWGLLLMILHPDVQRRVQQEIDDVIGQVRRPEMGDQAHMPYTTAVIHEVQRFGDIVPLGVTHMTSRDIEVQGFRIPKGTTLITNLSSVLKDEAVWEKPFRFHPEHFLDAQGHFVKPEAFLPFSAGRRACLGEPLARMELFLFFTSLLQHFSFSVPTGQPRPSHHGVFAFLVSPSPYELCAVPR

Regarding `CN(C/C=C\CN)C[C@H]1O[C@@H](n2cnc3c(N)ncnc32)[C@H](F)[C@@H]1O` (stereo in doubt) [Compound 1], the IC50 in data set [1] (Screening Data, read-out: IC50 T. b. rhod.) was 1.39 µM; in data set [1] (Table 1, 72 hours incubation, Alamar blue, read-out: IC50 against T. b. rhodesiense (ug/mL) by STI), 0.489 µg/mL; in data set [1] (Table 2, read-out: IC50 against T. b. rhodesiense (ug/mL) by STI), 0.489 µg/mL; in [1] (Table 3, read-out: IC50 against T. brucei rhodesiense), 0.489 µg/mL; in [4], above 5 µM; in [5] it was above 5 µM. Moreover, the IC50 was above 5 µM in data set [6]; above 5 µM in [7]; above 14 µM in [12]; above 85 µM in [13]; above 85 µM in data set [14]; above 10 µM in data set [15]. The “Microsomal stability (CL) rat” value in data set [2] (Table 2) is below 11 mL/min/kg. Besides, the CLint scaled in [2] (liver microsomes, Example 12 chart) is below 7.7 mL/min/kg; in data set [3] (hepatocytes, Example 12 chart), below 3.5 mL/min/kg. Moreover, in data set [3] (Table 2), the “Hepatocyte stability (CL) rat” value is recorded as below 11 mL/min/kg. Further, in data set [8] (Table 2, human plasma), the “Plasma Protein Binding % human” value was found to be 23.3%. Also, the fraction unbound at 4 hr is 0.767 in data set [8] (plasma, pH 7.4, Example 12 chart, human) and 0.523 in data set [9] (plasma, pH 7.4, Example 12 chart, mouse). Besides, the “Plasma protein binding (%) mouse” value in data set [9] (Table 2, mouse plasma) was found to be 47.7%. The same molecule showed a t/2 in mouse in data set [10] of 1.93 h. In [11] (mouse brain), this molecule gave an AUC of 26 ng·h/mL. For the same molecule, the Kp in [11] (brain relative to blood, mouse, read-out: Mouse Brain exposure compared with blood AUC (%)) worked out at 0.0016. In addition, the logD in [16] is -1.3.
